In patent EP3845222A1, “MICROENCAPSULATED FORMULATION COMPRISING DIOSMIN, TROXERUTIN AND COUMARINS, COMPOSITIONS THEREOF AND USE THEREOF FOR THE TREATMENT OF CIRCULATORY DISORDERS” (Pharma Line S.r.l., priority 2019, dated 2021):

Tested on: ligated saphenous vein (LSV)
Assay: In vivo ligated saphenous vein damage: histopathological examination (H&E)
Design: species or system NMRI mice
Conditions: control (non-ligated) mice treated for 7 days; also no signs of tissue inflammation

Compound: CCC(C)(C)C(=O)O[C@H]1C[C@@H](C)C=C2C=C[C@H](C)[C@H](CC[C@@H]3C[C@@H](O)CC(=O)O3)[C@H]21 [Simvastatin]
- changes in the lumen of the vessel: no significant changes
